Measured values as given in patent publication US11180504B2 (ORCHID PHARMA LTD., priority 2016, dated 2021).
Converted amounts (≈) assume the structure as drawn.

Tests used:
[1] = system: carbapenemase producing K. pneumoniae; test: MIC by broth micro-dilution (CLSI), carbapenemase producing K. pneumoniae; type: cell-based, Klebsiella pneumoniae; conditions: Klebsiella pneumoniae, ATCCBAA1705, KPC-2 K. pneumoniae ATCC BAA-1705; read-out: MIC
[2] = system: carbapenem sensitive Escherichia coli; test: MIC by broth micro-dilution (CLSI), carbapenem sensitive E. coli; type: cell-based; conditions: Escherichia coli, ATCC25922, ESBL −ve E. coli ATCC25922; read-out: MIC
[3] = system: extended spectrum β lactamase (ESBL) SHV18 producing Klebsiella pneumoniae; test: MIC by broth micro-dilution (CLSI), ESBL SHV18 producing K. pneumoniae; type: cell-based; conditions: Klebsiella pneumoniae, ATCC700603, 22 h, ESBL +ve (SHV-18) K. pneumoniae ATCC700603; read-out: MIC
[4] = system: carbapenem sensitive Pseudomonas aeruginosa; test: MIC by broth micro-dilution (CLSI), carbapenem sensitive P. aeruginosa; type: cell-based; conditions: Pseudomonas aeruginosa, ATCC27853, Meropenem susceptible P. aeruginosa ATCC27853; read-out: MIC
[5] = system: methicillin-sensitive Staphylococcus aureus; test: MIC by broth micro-dilution (CLSI), methicillin-sensitive S. aureus; type: cell-based; conditions: Staphylococcus aureus, ATCC 29213 / MSSA, MSSA S. aureus ATCC29213; read-out: MIC

C[C@@H](NS(=O)(=O)C(F)(F)F)[C@H]1C(=O)N2C(C(=O)O)=C(S[C@@H]3CN[C@H](C(=O)N4CCC(O)CC4)C3)[C@H](C)[C@H]12 [Example 30]
MIC [1]: 8 µg/mL (≈ 14 µM) | MIC [2]: 1 µg/mL (≈ 1.75 µM) | MIC [3]: 8 µg/mL (≈ 14 µM) | MIC [4]: 128 µg/mL (≈ 224 µM) | MIC [5]: 2 µg/mL (≈ 3.51 µM)

C[C@@H](NS(=O)(=O)C(F)(F)F)[C@H]1C(=O)N2C(C(=O)O)=C(S[C@@H]3CN[C@H](C(=O)N4CC[C@@H](O)C4)C3)[C@H](C)[C@H]12 [Example 34]
MIC [1]: 8 µg/mL (≈ 14.4 µM) | MIC [2]: 1 µg/mL (≈ 1.8 µM) | MIC [3]: 8 µg/mL (≈ 14.4 µM) | MIC [4]: 128 µg/mL (≈ 230 µM) | MIC [5]: 4 µg/mL (≈ 7.19 µM)

C[C@@H](NC(=O)C[S+]([O-])C(F)F)[C@H]1C(=O)N2C(C(=O)O)=C(S[C@@H]3CN[C@H](C(=O)N(C)C)C3)[C@H](C)[C@H]12 (mixture of isomers) [Example 82]
MIC [1]: 8 µg/mL | MIC [2]: 1 µg/mL | MIC [3]: 2 µg/mL | MIC [4]: 128 µg/mL | MIC [5]: 8 µg/mL

COCc1cn([C@H](C)[C@H]2C(=O)N3C(C(=O)O)=C(S[C@@H]4CN[C@H](C(=O)N(C)C)C4)[C@H](C)[C@H]23)nn1 [Example 233]
MIC [1]: 4 µg/mL (≈ 8.36 µM) | MIC [2]: 1 µg/mL (≈ 2.09 µM) | MIC [3]: 4 µg/mL (≈ 8.36 µM) | MIC [4]: > 128 µg/mL | MIC [5]: 4 µg/mL (≈ 8.36 µM)

C[C@@H](NC(=O)CN(C)C=N)[C@H]1C(=O)N2C(C(=O)O)=C(S[C@@H]3CN[C@H](C(=O)N4CC[C@@H](N)C4)C3)[C@H](C)[C@H]12 [Example 229]
MIC [1]: 64 µg/mL (≈ 123 µM) | MIC [2]: 16 µg/mL (≈ 30.7 µM) | MIC [3]: 64 µg/mL (≈ 123 µM) | MIC [4]: 32 µg/mL (≈ 61.3 µM) | MIC [5]: 128 µg/mL (≈ 245 µM)

C[C@@H](NC(=O)C(F)F)[C@H]1C(=O)N2C(C(=O)O)=C(S[C@@H]3CN[C@H](C(=O)N4CC[C@H](ON)C4)C3)[C@H](C)[C@H]12 [Example 148]
MIC [1]: 2 to 4 µg/mL (≈ 3.86 to 7.73 µM) | MIC [2]: 0.5 µg/mL (≈ 0.966 µM) | MIC [3]: 1 µg/mL (≈ 1.93 µM) | MIC [4]: 32 to 64 µg/mL (≈ 61.8 to 124 µM) | MIC [5]: 1 to 2 µg/mL (≈ 1.93 to 3.86 µM)

C[C@@H](NC(=O)C(F)F)[C@H]1C(=O)N2C(C(=O)O)=C(S[C@@H]3CN[C@H](C(=O)N4CC[C@@H](NC(=O)CN)C4)C3)[C@H](C)[C@H]12 [Example 160]
MIC [1]: 8 µg/mL (≈ 14.3 µM) | MIC [2]: 1 µg/mL (≈ 1.79 µM) | MIC [3]: 8 µg/mL (≈ 14.3 µM) | MIC [4]: 16 µg/mL (≈ 28.6 µM) | MIC [5]: 4 µg/mL (≈ 7.16 µM)

CN[C@@H]1CCN(C(=O)[C@@H]2C[C@H](SC3=C(C(=O)O)N4C(=O)[C@H]([C@@H](C)NC(=O)C(F)F)[C@H]4[C@H]3C)CN2)C1 [Example 149]
MIC [1]: 8 µg/mL (≈ 15.5 µM) | MIC [2]: 1 µg/mL (≈ 1.94 µM) | MIC [3]: 8 µg/mL (≈ 15.5 µM) | MIC [4]: 4 µg/mL (≈ 7.76 µM) | MIC [5]: 2 µg/mL (≈ 3.88 µM)

C[C@@H](NC(=O)[C@H]1CCCN1)[C@H]1C(=O)N2C(C(=O)O)=C(S[C@@H]3CN[C@H](CNS(N)(=O)=O)C3)[C@H](C)[C@H]12 [Example 226]
MIC [1]: 8 µg/mL (≈ 15.5 µM) | MIC [2]: 1 µg/mL (≈ 1.94 µM) | MIC [3]: 32 µg/mL (≈ 61.9 µM) | MIC [4]: 64 µg/mL (≈ 124 µM) | MIC [5]: 32 µg/mL (≈ 61.9 µM)

CNCC(=O)NO[C@H]1CCN(C(=O)[C@@H]2C[C@H](SC3=C(C(=O)O)N4C(=O)[C@H]([C@@H](C)NC(=O)C(F)F)[C@H]4[C@H]3C)CN2)C1 [Example 151]
MIC [1]: 8 µg/mL (≈ 13.6 µM) | MIC [2]: 2 µg/mL (≈ 3.4 µM) | MIC [3]: 16 µg/mL (≈ 27.2 µM) | MIC [4]: 32 µg/mL (≈ 54.4 µM) | MIC [5]: 4 µg/mL (≈ 6.8 µM)

C[C@@H](NC(=O)C(F)F)[C@H]1C(=O)N2C(C(=O)O)=C(S[C@@H]3CN[C@H](C(=O)N4CC[C@H](NCC#N)C4)C3)[C@H](C)[C@H]12 [Example 175]
MIC [1]: 4 µg/mL (≈ 7.4 µM) | MIC [2]: 1 µg/mL (≈ 1.85 µM) | MIC [3]: 2 µg/mL (≈ 3.7 µM) | MIC [4]: 16 µg/mL (≈ 29.6 µM) | MIC [5]: 2 µg/mL (≈ 3.7 µM)

CNCC(=O)N[C@H](C)[C@H]1C(=O)N2C(C(=O)O)=C(S[C@@H]3CN[C@H](C(=O)N4C[C@H](N)[C@@H](F)C4)C3)[C@H](C)[C@H]12 [Example 217]
MIC [1]: 1 µg/mL (≈ 1.95 µM) | MIC [2]: 0.5 µg/mL (≈ 0.975 µM) | MIC [3]: 1 µg/mL (≈ 1.95 µM) | MIC [4]: 2 µg/mL (≈ 3.9 µM) | MIC [5]: 16 µg/mL (≈ 31.2 µM)

C[C@@H](NC(=O)C(F)F)[C@H]1C(=O)N2C(C(=O)O)=C(S[C@@H]3CN[C@H](C(=O)N4CC[C@H](NC(=O)C(F)(F)CN)C4)C3)[C@H](C)[C@H]12 [Example 147]
MIC [1]: 4 to 8 µg/mL (≈ 6.57 to 13.1 µM) | MIC [2]: 1 µg/mL (≈ 1.64 µM) | MIC [3]: 2 µg/mL (≈ 3.29 µM) | MIC [4]: 64 to 128 µg/mL (≈ 105 to 210 µM) | MIC [5]: 2 µg/mL (≈ 3.29 µM)

CCCNCC(=O)N[C@H](C)[C@H]1C(=O)N2C(C(=O)O)=C(S[C@@H]3CN[C@H](C(=O)N(C)C)C3)[C@H](C)C12 (some centres unmarked) [Example 139]
MIC [1]: 4 µg/mL (≈ 8.31 µM) | MIC [2]: 1 µg/mL (≈ 2.08 µM) | MIC [3]: 4 µg/mL (≈ 8.31 µM) | MIC [4]: 32 µg/mL (≈ 66.4 µM) | MIC [5]: 32 µg/mL (≈ 66.4 µM)

CC(C)OC(=O)N[C@H](C)[C@H]1C(=O)N2C(C(=O)O)=C(S[C@@H]3CN[C@H](C(=O)N(C)C)C3)[C@H](C)[C@H]12 [Example 22]
MIC [1]: 32 µg/mL (≈ 68.3 µM) | MIC [2]: 8 µg/mL (≈ 17.1 µM) | MIC [3]: 64 to 128 µg/mL (≈ 137 to 273 µM) | MIC [4]: > 128 µg/mL | MIC [5]: 2 µg/mL (≈ 4.27 µM)

C[C@@H](NS(C)(=O)=O)[C@H]1C(=O)N2C(C(=O)O)=C(S[C@@H]3CN[C@H](C(=O)N4CCOCC4)C3)[C@H](C)[C@H]12 [Example 27]
MIC [1]: 4 µg/mL (≈ 7.96 µM) | MIC [2]: 0.5 µg/mL (≈ 0.995 µM) | MIC [3]: 1 µg/mL (≈ 1.99 µM) | MIC [4]: 64 to 128 µg/mL (≈ 127 to 255 µM) | MIC [5]: 16 µg/mL (≈ 31.8 µM)
